Where two headings read alike, the source gives them in different places.

Experiment [1] deals with T1, membrane attack complex (addition of C9 to C5b678) (Homo sapiens, UniProt P02748).
T1 construct: from tissue; host or cells: normal human serum (with antibody-sensitized sheep red blood cells)
In words: Western blot variation of CH50 assay: stage of complement blockade. Particulars: human serum diluted 16 fold, pre-treated 30 min; blots with antibodies to C6, C7, C8, C9. It counts as biochemical. The procedure:
Normal human serum was pre-treated with aliquots of aqueous solutions of ATA, AQA, AHA and ATAC prior to adding sheep red blood cells sensitized to human complement. The reaction mixtures were incubated at 37° C. for 1 h. Aliquots were loaded on 10% polyacrylamide gels and subjected to SDS-PAGE. Proteins were transferred to membranes and developed with appropriate primary antibodies to complement proteins (Table 1): FIG. 4A: Western blots of membranes developed with antibodies to C1q, C3, C4 and C5. Lane 1, untreated serum; lane 2, serum with red blood cells added; lane 3 serum with red blood cells protected with ATAC. Notice that in untreated serum, bands for C1q, C3, C4, and C5 were readily detected. In lanes 2 and 3, the activated products C3d, C4d, and C5a were detected indicating opsonization had taken place. […] It can be seen that C5b-9 is […] detected upon probing with C6, C7, C8 and C9, thus establishing that the ATAC block was at the C9 stage. […]
To determine at which stage of assembly of the membrane attack complex was being blocked, additional analyses were carried. […] The C6 antibody detected C5b6, C5b67, and C5b678. The C7 antibody detected C5b67 and C5b678, while the C8 antibody detected C5b678. […]

Experiment [2] deals with classical complement pathway. In words: CH50 assay, human serum, sensitized sheep red blood cell hemolysis. It counts as cell-based. Particulars: sensitized sheep red blood cells, 1 hour at 37° C., read-out: IC50, inhibition of human complement-mediated red blood cell hemolysis. The procedure: To evaluate the strength of blockade of the classical complement pathway by the low molecular weight products of the aurin tricarboxylic acid complex, (i.e. ATA plus AQA plus AHA), the standard CH50 assay was employed. Sheep red blood cells were sensitized by incubation overnight with rabbit anti sheep red blood cell antibody. Then dilutions of serum, with and without various amounts of the low molecular weight aurin tricarboxylic acid fraction (ATAC), were incubated with the sensitized red blood cells for 1 hour at 37° C. The incubates were centrifuged at 5,000 rpm for 10 min. The hemoglobin released into the serum from red blood cells that had been destroyed by complement attack, was determined by reading the optical density (OD) at 405 nm. As a positive control, red blood cells were 100% lysed with water, and as a negative control, no serum was added to the incubate.

T1 sequence (P02748 22-559, one chain of several): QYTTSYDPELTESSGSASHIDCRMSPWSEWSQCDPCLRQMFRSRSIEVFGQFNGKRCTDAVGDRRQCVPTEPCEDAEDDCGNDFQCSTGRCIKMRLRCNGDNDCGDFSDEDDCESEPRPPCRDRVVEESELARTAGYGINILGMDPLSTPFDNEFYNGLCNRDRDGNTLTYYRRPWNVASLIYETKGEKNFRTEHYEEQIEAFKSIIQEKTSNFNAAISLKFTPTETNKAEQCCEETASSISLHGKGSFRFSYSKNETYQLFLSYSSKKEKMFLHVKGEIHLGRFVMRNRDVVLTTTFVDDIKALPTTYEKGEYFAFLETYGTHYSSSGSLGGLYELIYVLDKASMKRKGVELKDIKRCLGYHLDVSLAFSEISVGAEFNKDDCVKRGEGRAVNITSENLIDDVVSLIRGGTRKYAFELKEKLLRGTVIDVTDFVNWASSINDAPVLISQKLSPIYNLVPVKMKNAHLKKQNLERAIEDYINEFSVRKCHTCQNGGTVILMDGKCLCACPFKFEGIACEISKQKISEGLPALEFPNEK

With “5,5′-((3-carboxy-5-((3-carboxy-4-oxocyclohexa-2,5-dien-1-ylidene)methyl)-4-hydroxybenzyl)-4-hydroxyphenyl)methylene)bis(2-hydroxybenzoic acid) [AHA]”, the “stage at which membrane attack complex formation is arrested” value in experiment [1] is “becomes arrested at the C8 stage”. For the same compound, in experiment [2], the IC50 is 559 nM.

`O=C(O)C1=CC(=Cc2cc(C(c3ccc(O)c(C(=O)O)c3)c3ccc(O)c(C(=O)O)c3)cc(C(=O)O)c2O)C=CC1=O` [AQA]: the “stage at which membrane attack complex formation is arrested” value in experiment [1] is listed as “becomes arrested at the C8 stage”. The IC50 in experiment [2] is 576 nM.

Regarding `O=C(O)C1=CC(=C(c2ccc(O)c(C(=O)O)c2)c2ccc(O)c(C(=O)O)c2)C=CC1=O` [ATA, 5,5′-((3-carboxy-4-oxocyclohexa-2,5-dienn-1-ylidene)methylene)bis(2-hydroxybenzoic acid)], the IC50 in experiment [2] (Erythrocyte) came out at 544 nM.

The record behind these values is patent US10588879B2, “Treatment of age-related macular degeneration” (Aurin Biotech Inc., priority 2011, dated 2020).
